In publication PMC4710668, “Bioactivation of food genotoxicants 5-hydroxymethylfurfural and furfuryl alcohol by sulfotransferases from human, mouse and rat: a comparative study” (Archives of Toxicology, 2014):

Experiments:
Experiment in all cases: FFA sulfoconjugation assay (N6-MF-A formation with adenosine as scavenger)
Type in all cases: biochemical
mSult1e1 = target: T1, mSult1e1 (Mus musculus, UniProt P49891)
T1 construct: made in house; host or cells: Salmonella typhimurium TA1538 (cytosolic fraction, enzyme not purified)
T1 sequence (P49891 1-295): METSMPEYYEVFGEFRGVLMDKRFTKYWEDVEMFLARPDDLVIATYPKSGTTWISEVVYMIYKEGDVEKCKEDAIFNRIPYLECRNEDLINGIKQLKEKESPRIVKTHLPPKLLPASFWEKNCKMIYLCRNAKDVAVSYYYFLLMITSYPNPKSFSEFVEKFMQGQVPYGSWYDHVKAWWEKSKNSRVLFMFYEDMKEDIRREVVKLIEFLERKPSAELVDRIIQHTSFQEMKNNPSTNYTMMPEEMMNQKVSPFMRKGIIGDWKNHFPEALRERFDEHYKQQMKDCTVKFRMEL
In short: (§1)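 SULT-containing cytosols from transgenic S. typhimurium TA1538 were incubated with FFA and 10 mM adenosine as nucleophilic scavenger for 20 min at 37 °C. N6-MF-A adducts were quantified by isotope-dilution UPLC-MS/MS ([15N5]N6-MF-A internal standard). Adduct formed in SULT-deficient cytosol controls was subtracted.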

mSult2a2 = target: T2, mSult2a2 (Mus musculus, UniProt P50236)
T2 construct: made in house; host or cells: Salmonella typhimurium TA1538 (cytosolic fraction, enzyme not purified)
T2 sequence (P50236 1-285): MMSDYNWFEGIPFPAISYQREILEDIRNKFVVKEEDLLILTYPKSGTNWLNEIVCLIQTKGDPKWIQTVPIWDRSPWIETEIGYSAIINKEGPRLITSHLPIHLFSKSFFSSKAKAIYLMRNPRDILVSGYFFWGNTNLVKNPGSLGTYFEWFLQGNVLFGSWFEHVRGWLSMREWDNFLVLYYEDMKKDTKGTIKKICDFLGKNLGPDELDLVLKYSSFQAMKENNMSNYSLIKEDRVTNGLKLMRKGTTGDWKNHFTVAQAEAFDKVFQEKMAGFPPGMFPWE
In short: as §1

mSult2b1b = target: T3, mSult2b1b (Mus musculus, UniProt O35400)
T3 construct: made in house; host or cells: Salmonella typhimurium TA1538 (cytosolic fraction, enzyme not purified)
T3 sequence (O35400 1-338): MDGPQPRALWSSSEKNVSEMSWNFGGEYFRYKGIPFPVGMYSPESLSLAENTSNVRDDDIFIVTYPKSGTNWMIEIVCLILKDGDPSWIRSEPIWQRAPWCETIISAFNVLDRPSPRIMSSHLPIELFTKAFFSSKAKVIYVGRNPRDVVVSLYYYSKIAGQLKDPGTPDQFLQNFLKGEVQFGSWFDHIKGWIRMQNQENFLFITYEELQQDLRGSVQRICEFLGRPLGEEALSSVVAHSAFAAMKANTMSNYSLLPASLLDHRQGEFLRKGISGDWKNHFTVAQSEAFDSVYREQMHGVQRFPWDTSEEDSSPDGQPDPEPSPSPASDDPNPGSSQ
In short: as §1

rSult1c1 = target: T4, rSult1c1 (Rattus norvegicus, UniProt P50237)
T4 construct: made in house; host or cells: Salmonella typhimurium TA1538 (cytosolic fraction, enzyme not purified)
T4 sequence (P50237 whole entry): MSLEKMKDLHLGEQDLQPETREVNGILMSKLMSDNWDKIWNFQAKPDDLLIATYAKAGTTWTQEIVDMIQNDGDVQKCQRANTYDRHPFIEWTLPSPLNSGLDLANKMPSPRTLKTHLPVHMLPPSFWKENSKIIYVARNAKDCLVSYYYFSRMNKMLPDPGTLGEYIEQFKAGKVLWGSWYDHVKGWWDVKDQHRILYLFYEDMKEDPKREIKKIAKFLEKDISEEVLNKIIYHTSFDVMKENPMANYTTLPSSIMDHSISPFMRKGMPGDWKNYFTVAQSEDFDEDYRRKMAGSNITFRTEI
In short: as §1

With `OCc1ccco1` [FFA, furfuryl alcohol] the “Rate of N6-MF-A formation” value (mSult1e1; 0.1 mM FFA) was under 18 fmol N ^6-MF-A/mg/min, the “Rate of N6-MF-A formation” value (mSult1e1; 1 mM FFA) was 49.3 ± 1.2 fmol N ^6-MF-A/mg/min and the “Rate of N6-MF-A formation” value (mSult1e1; 10 mM FFA) was 425 ± 3 fmol N ^6-MF-A/mg/min. The “Rate of N6-MF-A formation” value (mSult2a2; 0.1 mM FFA) was under 18 fmol N ^6-MF-A/mg/min, the “Rate of N6-MF-A formation” value (mSult2a2; 1 mM FFA) was under 20 fmol N ^6-MF-A/mg/min and the “Rate of N6-MF-A formation” value (mSult2a2; 10 mM FFA) was 216 ± 3 fmol N ^6-MF-A/mg/min. The “Rate of N6-MF-A formation” value (mSult2b1b; 0.1 mM FFA) was under 18 fmol N ^6-MF-A/mg/min, the “Rate of N6-MF-A formation” value (mSult2b1b; 1 mM FFA) was under 20 fmol N ^6-MF-A/mg/min and the “Rate of N6-MF-A formation” value (mSult2b1b; 10 mM FFA) was under 44 fmol N ^6-MF-A/mg/min. For the same molecule, the “Rate of N6-MF-A formation” value (rSult1c1; 0.1 mM FFA) was under 18 fmol N ^6-MF-A/mg/min, the “Rate of N6-MF-A formation” value (rSult1c1; 1 mM FFA) was 97.8 ± 2.3 fmol N ^6-MF-A/mg/min and the “Rate of N6-MF-A formation” value (rSult1c1; 10 mM FFA) was 492 ± 13 fmol N ^6-MF-A/mg/min.
